# System: Male BALB/c HSD mice
# Test: Survival of mice rendered hepatotoxic by LPS/GAL treatment (model for septic shock / hepatic failure)
# Assay type: in vivo
# Experimental: Hepatic failure was induced in mice by intraperitoneal injections of a mixture of lipopolysaccharide (LPS) (100 µg/kg) and D-galactosamine (GAL) (700 mg/kg) to form LPS/GAL. LPS is a bacterial endotoxin that is a major stimulus for production of many cytokines, particularly tumor necrosis factor (TNF), thought to be involved in liver injury. GAL is an amino sugar that sensitizes hepatocytes by depleting the base uridine and thus preventing hepatic transcription, and sensitizes animals to normally innocuous amounts of endotoxin or TNF. The LPS/GAL treatment induces fulminate hepatic and multiorgan failure, and serves as a model for septic shock. The major effects of LPS/GAL are elicited by the inflammatory cytokine TNF-α. Hepatocytes sensitized to TNF-α then undergo apoptosis or programmed cell death in response to inflammatory processes.
# Mice were treated with deltorphin and were subsequently rendered hepatotoxic by LPS/GAL treatment. An emulsion of deltorphin I SEQ ID NO:1 (Tyr-D-Ala-Phe-Asp-Val-Val-Gly-NH2) was prepared at a concentration of 80 µg/200 µl in sterile phosphate buffered saline (PBS). An emulsion of DADLE (Tyr-D-Ala-Gly-Phe-D-Leu-enkephalin) was also prepared at a concentration of 80 µg/200 µl in sterile PBS. Male BALB/c HSD mice were treated by intraperitoneal injections according to the following protocol. Control mice (n = 7) received only LPS/GAL (280 µl) at 6.5 h. Deltorphin I SEQ ID NO:1 treated mice (n = 15) received injections of 4 mg/kg deltorphin I SEQ ID NO:1 at 0 h, 2 h, 4 h, 6 h and 7.5 h and received an LPS/GAL injection at 6.5 h. DADLE treated mice (n = 15) received 4 mg/kg DADLE at 0 h, 2 h, 4 h, 6 h and 7.5 h and received an LPS/GAL injection at 6.5 h.
# Both control and treated mice were monitored at 15 h, 20 h, 40 h and 65 h after the last injection. TABLE
# [1] = n = 15, 4 mg/kg intraperitoneal at 0 h, 2 h, 4 h, 6 h and 7.5 h, LPS/GAL at 6.5 h, 15 h after the last injection
# [2] = n = 15, 4 mg/kg intraperitoneal at 0 h, 2 h, 4 h, 6 h and 7.5 h, LPS/GAL at 6.5 h, 20 h after the last injection
# [3] = n = 15, 4 mg/kg intraperitoneal at 0 h, 2 h, 4 h, 6 h and 7.5 h, LPS/GAL at 6.5 h, 40 h after the last injection
# [4] = n = 15, 4 mg/kg intraperitoneal at 0 h, 2 h, 4 h, 6 h and 7.5 h, LPS/GAL at 6.5 h, 65 h after the last injection
substance,measurement,setting,value
Tyr-D-Ala-Gly-Phe-D-Leu-enkephalin [DADLE],survival time,"mice made septic by LPS/GAL treatment, compared to mice receiving LPS/GAL only",not as striking
same,SURVIVAL 15 Hours (number of mice),[1],3
same,SURVIVAL 15 Hours (percent),[1],20%
same,SURVIVAL 20 Hours (number of mice),[2],3
same,SURVIVAL 20 Hours (percent),[2],20%
same,SURVIVAL 40 Hours (number of mice),[3],3
same,SURVIVAL 40 Hours (percent),[3],20%
same,SURVIVAL 65 Hours (number of mice),[4],3
same,SURVIVAL 65 Hours (percent),[4],20%
